Assay [1] deals with ANKA strain of P. berghei. Kind of assay: Single dose STI in vivo screen in infected mice. More on the design: species or system Plasmodium berghei. The following applies: for Survival (days) 10 mg/kg po: single 10 mg/kg po in 3% ethanol and 7% Tween 80; for Survival (days) 10 mg/kg po / Survival (days) 10 mg/kg SSV po / Survival (days) 10 mg/kg sc: untreated 6-7 days; for Activity (%) 10 mg/kg po: single 10 mg/kg po in 3% ethanol and 7% Tween 80 on day 1 post-infection; for Activity (%) 10 mg/kg po / Activity (%) 10 mg/kg SSV po / Activity (%) 10 mg/kg sc / Activity (%) 3 mg/kg SSV po: percent reduction in parasitemia on day 3; for Survival (days) 10 mg/kg SSV po: single 10 mg/kg po in SSV; for Activity (%) 10 mg/kg SSV po: single 10 mg/kg po in standard suspending vehicle (SSV) on day 1 post-infection; for Survival (days) 10 mg/kg sc: single 10 mg/kg sc in 3% ethanol and 7% Tween 80; for Activity (%) 10 mg/kg sc: single 10 mg/kg sc in 3% ethanol and 7% Tween 80 on day 1 post-infection; for Survival (days) 3 mg/kg SSV po / Activity (%) 3 mg/kg SSV po: single 3 mg/kg po in SSV.

The test system of assay [2] is chloroquine-sensitive NF54 strain of P. falciparum. Kind of assay: In vitro antimalarial semiautomated microdilution assay ([3H]-hypoxanthine incorporation), NF54 strain. The following applies: for IC50: Plasmodium falciparum. In kind it is cell-based, Plasmodium falciparum. In short, it runs like this:
(§1)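 Asynchronous stock-culture parasites (intraerythrocytic forms), serial compound dilutions; readout [3H]-hypoxanthine uptake; IC50 via Logit regression.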
(In general: Broth dilution looks for growth in wells or tubes with falling amounts of substance.)

Assay [3] has as its system chloroquine-resistant K1 strain of P. falciparum. Kind of assay: In vitro antimalarial semiautomated microdilution assay ([3H]-hypoxanthine incorporation), K1 strain. Type of assay: cell-based, Plasmodium falciparum. The following applies: for IC50: Plasmodium falciparum. In a few lines: as §1
The mark [4] stands for this setting: chloroquine-sensitive NF54 strain, 72 h incubation, read-out: IC50 (ng/ml) NF54.
Where [5] appears, read: chloroquine-resistant K1 strain, 72 h incubation, read-out: IC50 (ng/ml) K1.
[6] abbreviates: NF54, 72 h, read-out: IC50 (ng/ml) NF54, chloroquine-sensitive NF54 strain, 72 h incubation.
[7] abbreviates: K1, 72 h, read-out: IC50 (ng/ml) K1, chloroquine-resistant K1 strain, 72 h incubation.

Values after ≈ are worked out from the molar mass of the structure shown. Read-outs that look alike come from different tables or passages of the source.

For the compound `COC(=O)c1cncn1C[C@H]1CC[C@]2(CC1)OOC1(O2)C2CC3CC(C2)CC1C3` (stereo partly drawn) [OZ223], in assay [1], the “Survival (days) 10 mg/kg po” value is recorded as 7.3 days, the “Activity (%) 10 mg/kg po” value was 89%, the “Survival (days) 10 mg/kg SSV po” value came to 6.3 days and the “Activity (%) 10 mg/kg SSV po” value was determined as 79%. In assay [1], the “Survival (days) 10 mg/kg sc” value is 12.0 days and the “Activity (%) 10 mg/kg sc” value amounted to 99.57%. For the same compound, the IC50 in assay [2] (setting [4]) was more than 10 ng/mL. For the same compound, the IC50 in assay [3] (setting [5]) amounted to 4 ng/mL (≈ 9.94 nM).

As for `CS(=O)(=O)C[C@H]1CC[C@]2(CC1)OO[C@]1(O2)C2CC3CC(C2)CC1C3` [OZ307], in assay [1], the “Survival (days) 3 mg/kg SSV po” value is reported as 7.8 days, the “Activity (%) 3 mg/kg SSV po” value is recorded as 74%, the “Survival (days) 10 mg/kg SSV po” value is 9.4 days and the “Activity (%) 10 mg/kg SSV po” value was 98%. Further, the IC50 in assay [2] (setting [6]) worked out at 0.88 ng/mL (≈ 2.47 nM). Besides, in assay [3] (setting [7]), the IC50 was 0.62 ng/mL (≈ 1.74 nM).

With `O=C(O)C1(c2ccccc2)CCC2(CC1)OOC1(O2)C2CC3CC(C2)CC1C3` (stereo not drawn) [OZ99], in assay [1], the “Survival (days) 10 mg/kg po” value came out at 6.3 days, the “Activity (%) 10 mg/kg po” value is 30%, the “Survival (days) 10 mg/kg SSV po” value was determined as 5.7 days and the “Activity (%) 10 mg/kg SSV po” value is given as 40%. Besides, in assay [1], the “Survival (days) 10 mg/kg sc” value stood at 6.3 days and the “Activity (%) 10 mg/kg sc” value is 36%. The IC50 in assay [2] (setting [6]) turned out to be 27 ng/mL (≈ 70.2 nM). Also, in assay [3] (setting [7]), the IC50 came to 77 ng/mL (≈ 200 nM).

For the compound `NC1(C(=O)NC[C@H]2CC[C@]3(CC2)OO[C@]2(O3)C3CC4CC(C3)CC2C4)CCCCC1` [OZ333], in assay [1], the “Survival (days) 3 mg/kg SSV po” value is given as 8.0 days, the “Activity (%) 3 mg/kg SSV po” value was found to be 96% and the “Survival (days) 10 mg/kg SSV po” value amounted to 9.2 days. Also, the IC50 in assay [2] (setting [4]) was 0.44 ng/mL (≈ 1.05 nM). Further, the IC50 in assay [3] (setting [5]) turned out to be 0.24 ng/mL (≈ 0.573 nM).

On to `CC(C)(N)CNC[C@H]1CC[C@]2(CC1)OOC1(O2)C2CC3CC(C2)CC1C3` (stereo partly drawn) [OZ287], for which, in assay [1], the “Survival (days) 3 mg/kg SSV po” value stood at 7.2 days, the “Activity (%) 3 mg/kg SSV po” value worked out at 68%, the “Survival (days) 10 mg/kg SSV po” value amounted to 8.3 days and the “Activity (%) 10 mg/kg SSV po” value is on record as 95%. Moreover, the IC50 in assay [2] (setting [4]) turned out to be 0.83 ng/mL (≈ 2.28 nM). Further, the IC50 in assay [3] (setting [5]) is 0.49 ng/mL (≈ 1.34 nM).

For `O=C1c2ccccc2C(=O)N1C[C@H]1CC[C@]2(CC1)OOC1(O2)C2CC3CC(C2)CC1C3` (stereo partly drawn) [OZ146], in assay [1], the “Survival (days) 10 mg/kg po” value is 7.0 days, the “Activity (%) 10 mg/kg po” value is listed as 62%, the “Survival (days) 10 mg/kg SSV po” value was 6.3 days and the “Activity (%) 10 mg/kg SSV po” value amounted to 40%. Besides, in assay [1], the “Survival (days) 10 mg/kg sc” value is listed as 9.0 days and the “Activity (%) 10 mg/kg sc” value stood at 91%. In addition, in assay [2] (setting [4]), the IC50 is 2.7 ng/mL (≈ 6.38 nM). In addition, the IC50 in assay [3] (setting [5]) amounted to 2.2 ng/mL (≈ 5.19 nM).

On to `N#Cc1ccc(C2(c3ccccc3)OOC3(O2)C2CC4CC(C2)CC3C4)cc1` (stereo not drawn) [OZ124], for which, in assay [1], the “Survival (days) 10 mg/kg po” value is on record as 6.3 days, the “Activity (%) 10 mg/kg po” value is recorded as 72%, the “Survival (days) 10 mg/kg SSV po” value was 5.3 days and the “Activity (%) 10 mg/kg SSV po” value was determined as 17%. Further, in assay [1], the “Survival (days) 10 mg/kg sc” value was 7.0 days and the “Activity (%) 10 mg/kg sc” value stood at 86%. The IC50 in assay [2] (setting [4]) is 1.7 ng/mL (≈ 4.55 nM). In addition, the IC50 in assay [3] (setting [5]) came out at 2.1 ng/mL (≈ 5.62 nM).

For `CC1(C)COC(c2ccc([C@H]3CC[C@]4(CC3)OOC3(O4)C4CC5CC(C4)CC3C5)cc2)=N1` (stereo partly drawn) [OZ180], in assay [1] (hydrochloride, 10 mg/kg), the “Survival (days) 10 mg/kg po” value came out at 13.7 days, the “Activity (%) 10 mg/kg po” value is recorded as 99.91%, the “Survival (days) 10 mg/kg SSV po” value was 12.7 days and the “Activity (%) 10 mg/kg SSV po” value turned out to be 97%. Besides, in assay [1] (hydrochloride, 10 mg/kg), the “Survival (days) 10 mg/kg sc” value was determined as 10.3 days and the “Activity (%) 10 mg/kg sc” value stood at 65%. For the same compound, in assay [2] (chloroquine-sensitive NF54 strain, 72 h incubation, hydrochloride), the “IC50 (ng/ml) NF54” value is 2.8 ng/mL (≈ 6.4 nM). Also, the “IC50 (ng/ml) K1” value in assay [3] (chloroquine-resistant K1 strain, 72 h incubation, hydrochloride) was 3.7 ng/mL (≈ 8.46 nM).

Regarding `O=C(C[C@H]1CC[C@]2(CC1)OO[C@]1(O2)C2CC3CC(C2)CC1C3)N1CCC(O)CC1` [OZ297], in assay [1], the “Survival (days) 3 mg/kg SSV po” value worked out at 7.6 days, the “Activity (%) 3 mg/kg SSV po” value is 83%, the “Survival (days) 10 mg/kg SSV po” value is 9.8 days and the “Activity (%) 10 mg/kg SSV po” value amounted to 99.69%. The IC50 in assay [2] (setting [4]) was found to be 0.76 ng/mL (≈ 1.87 nM). The IC50 in assay [3] (setting [5]) amounted to 0.49 ng/mL (≈ 1.21 nM).

For the compound `O=C1OC2(CCC3(CC2)OOC2(O3)C3CC4CC(C3)CC2C4)c2ccccc21` (stereo not drawn) [OZ149, Adamantane-2-spiro-3′-1′,2′,4′-trioxaspiro[4.5]decane-8′-spiro-1″-3″-oxo-3″H-isobenzofuran], in assay [1], the “Survival (days) 10 mg/kg po” value is recorded as 7.7 days, the “Activity (%) 10 mg/kg po” value was determined as 64%, the “Survival (days) 10 mg/kg SSV po” value stood at 6.0 days and the “Activity (%) 10 mg/kg SSV po” value turned out to be 3%. In assay [1], the “Survival (days) 10 mg/kg sc” value turned out to be 14.3 days and the “Activity (%) 10 mg/kg sc” value is on record as 87%. Moreover, the IC50 in assay [2] (setting [4]) came out at 8.8 ng/mL (≈ 23 nM). Besides, the IC50 in assay [3] (setting [5]) was found to be 8 ng/mL (≈ 20.9 nM).

Regarding `COCC(=O)N(Cc1ccccc1)C1CCC2(CC1)OOC1(O2)C2CC3CC(C2)CC1C3` (stereo not drawn) [OZ173], in assay [1], the “Survival (days) 10 mg/kg po” value came out at 7.0 days, the “Activity (%) 10 mg/kg po” value was determined as 15%, the “Survival (days) 10 mg/kg SSV po” value came out at 6.7 days and the “Activity (%) 10 mg/kg SSV po” value was 0%. Also, in assay [1], the “Survival (days) 10 mg/kg sc” value is listed as 9.7 days and the “Activity (%) 10 mg/kg sc” value turned out to be 80%. Further, the IC50 in assay [2] (setting [6]) was 32 ng/mL (≈ 72.5 nM). For the same compound, the IC50 in assay [3] (setting [7]) is 58 ng/mL (≈ 131 nM).

Take `C1C2CC3CC1CC(C2)C31OOC2(CCC(NC3CC3)CC2)O1` (stereo not drawn) [OZ185]: in assay [1], the “Survival (days) 10 mg/kg po” value turned out to be 7.7 days, the “Activity (%) 10 mg/kg po” value was 86%, the “Survival (days) 10 mg/kg SSV po” value turned out to be 6.7 days and the “Activity (%) 10 mg/kg SSV po” value turned out to be 56%. For the same compound, in assay [1], the “Survival (days) 10 mg/kg sc” value amounted to 10.7 days and the “Activity (%) 10 mg/kg sc” value is on record as 99.96%. Also, the IC50 in assay [2] (setting [6]) worked out at 1.4 ng/mL (≈ 4.38 nM). Further, the IC50 in assay [3] (setting [7]) stood at 1.1 ng/mL (≈ 3.44 nM).

The values are drawn from patent US6825230B2, “Spiro and dispiro 1,2,4-trixolane antimalarials” (Medicines for Malaria Venture MMV, priority 2002, dated 2004).
